Results: ChEMBL document CHEMBL1141805, “Isolation of 1-Methylherbipoline Salts of Halisulfate-1 and of Suvanine as Serine Protease Inhibitors from a Marine Sponge, Coscinoderma mathewsi” (J Nat Prod, 1998)

Tests used:
Prothrombin = Prothrombin (Homo sapiens, UniProt P00734)
[1] = Inhibition of trypsin

Compound | IC50 (Prothrombin) [µM] | IC50 [1] [µg/mL]
C/C(=C\Cc1cc(O)ccc1O)CCC[C@@H](C)[C@@H](C[C@@H]1CCC[C@H]2C(C)(C)CCC[C@@]12C)OS(=O)(=O)[O-].[Na+] [HALISULPHATESODIUM] | 62.6 | 2
CC1(C)CCC[C@H]2[C@H]1CC[C@@]1(C)[C@@H]2CC/C(=C\OS(=O)(=O)[O-])[C@@H]1CCc1ccoc1.C[N+](C)=C(N)N | 47.7 | 23
CC1(C)CCC[C@H]2[C@H]1CC[C@@]1(C)[C@@H]2CC/C(=C\OS(=O)(=O)[O-])[C@@H]1CCc1ccoc1.[Na+] | 19.6 | 27
